Measurements: patent US8207198B2, “Substituted triazole derivatives as oxytocin antagonists” (Pfizer Inc., priority 2005, dated 2012)

Target: T1, oxytocin receptor (CHO-OTR/NFAT-β-Lactamase cells) (Homo sapiens, UniProt P30559)
T1 construct: expressed in transfected cells; host or cells: CHO-OTR cell line, further transfected with the NFAT-β-lactamase reporter construct
T1 sequence (P30559 1-389): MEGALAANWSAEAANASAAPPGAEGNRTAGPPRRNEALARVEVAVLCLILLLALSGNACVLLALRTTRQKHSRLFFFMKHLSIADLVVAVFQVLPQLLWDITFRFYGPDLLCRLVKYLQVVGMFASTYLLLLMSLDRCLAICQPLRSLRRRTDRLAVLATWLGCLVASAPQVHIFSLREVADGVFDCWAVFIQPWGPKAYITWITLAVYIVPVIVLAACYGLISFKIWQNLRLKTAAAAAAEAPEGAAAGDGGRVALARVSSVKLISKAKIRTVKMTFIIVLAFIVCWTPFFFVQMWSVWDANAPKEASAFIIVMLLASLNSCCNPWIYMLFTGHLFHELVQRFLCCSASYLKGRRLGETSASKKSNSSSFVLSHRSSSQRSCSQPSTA
Experiment: Oxytocin Receptor Beta-Lactamase Assay
Type: cell-based
Settings: oxytocin stimulation, read-out: oxytocin antagonist activity, expressed as a Ki value
Procedure: A suitable assay for determining the oxytocin antagonist activity of a compound is detailed herein below.
Oxytocin Receptor Beta-Lactamase Assay
Cell Culture Cells used are CHO-OTR/NFAT-β-Lactamase. The NFAT-β-lactamase expression construct was transfected into the CHO-OTR cell line and clonal populations were isolated via fluorescence activated cell sorting (FACS). An appropriate clone was selected to develop the assay. Growth Medium 90% F12 Nutrient Mix, 15 mM HEPES 10% FBS 400 μg/ml Geneticin 200 μg/ml Zeocin 2 mM L-Glutamine Assay Media 99.5% F12 Nutrient Mix, 15 mM HEPES 0.5% FBS
Recovery of cells—A vial of frozen cells is thawed rapidly in 37° C. water bath and the cell suspension transferred into a T225 flask with 50 ml of fresh growth medium and then incubated at 37° C., 5% CO2 in an incubator until the cells adhered to the flask Replace media with 50 ml of fresh growth media the following day.
Culturing cells—CHO-OTR-NFAT-βLactamase cells were grown in growth medium. Cells were harvested when they reached 80-90% confluence removing the medium and washing with pre-warmed PBS. PBS was then removed and Trypsin/EDTA added (3 mls for T225 cm^2 flask) before incubating for 5 min in 37° C./5% CO2 incubator. When cells were detached, pre-warmed growth media was added (7 mls for T225 cm^2 flask) and the cells re-suspended and mixed gently by pipetting to achieve single cell suspension. The cells were split into T225 flask at 1:10 (for 3 days growth) and 1:30 (for 5 days growth) ratio in 35 ml growth medium.
Cells grown at 80-90% confluence were harvested and counted. Suspensions of cells at 2×10^5 cells/ml in growth medium were prepared and 30 μl of cells suspension added in 384-well, black clear-bottom plates. A blank plate containing diluents from each reagent was used for background subtraction.
Plates were incubated at 37° C., 5% CO2 overnight. […]
Preparation of 1 ml of 6× Loading Buffer with Enhanced Loading Protocol (this requires scale-up according to number of plates to be screened). • 12 μl of solution A (1 mM CCF4-AM in Dry DMSO) was added to […] of solution B (100 mg/ml Pluronic-F127 in DMSO+0.1% Acetic Acid) and vortexed. • The resulting solution was added to 925 μl of solution C (24% w/w PEG400, 18% TR40 v/v in water). • 75 μl of solution D was added (200 mM probenecid in 200 mM NaOH). • 10 μl of 6× Loading Buffer was added to all wells and incubated for 1.5 hrs-2 hrs at room temperature in the dark. • The plates were read using an LJL Analyst, Excitation 405 nm, Emission 450 nm and 530 nm, gain optimal, lagtime 0.40 μs integration, 4 flashes, bottom reading.

Ki | Compound
9 nM | COCc1nnc(N2CC(Oc3ccc(F)cc3Cl)C2)n1-c1ccc(OC)nc1 [Example 25]
13.8 nM | COCc1nnc(N2CC(Oc3cccc(C)c3C)C2)n1-c1ccc(OC)nc1 [Example 28]
4.2 nM | COc1ccc(-n2c(C)nnc2N2CCC(Oc3ccc(F)cc3C)CC2)cn1 [Example 43]
1.8 nM | COCc1nnc(N2CCC(Oc3cccc(F)c3C)CC2)n1-c1ccc(OC)nc1 [Example 48]
